Reference: patent US6225321A (priority 1997, dated 2001)
Several values for one entry are separate records, joined by “and”; a condition that tells them apart may be missing. Identical values can stand only once. Counter-ions that a name gives are not always drawn.

Key:
Sprague Dawley rats = test: Analgesic effect, cold ethanol bath tail flick test, intramuscular, rats; format: in vivo, rat; details: FIG. 6, rats, 25 micromole/kg intramuscular; for analgesic duration of Nalbuphine free base compared with the preparation of this ester: the shorter one is Nalbuphine free base
Description: Sprague Dawley rats(175 to 225 g) were used. Each group consisted of 6 rats and each rats was injected once intramuscularly on the rear leg. […]
The dose for each rat was 25 micromole per kg, intramuscularly.
In the experiment, a circulating cold ethanol bath with a temperature maintained at -20° C. was set up. After dosing, the rat tail(1/3 from the tip) was immersed in the bath. The latency for the rat to flick its tail from the bath was measured to be the nociceptive threshold. The effect of various opium alkaloid preparations can be determined with this test.
The nociceptive effect can be calculated as follows: [formula]
35, 25, 15 minutes before dosing, Male Sprague Dawley rat(175-225 g) was tested to measure the basic response latency. The time to top the experiment was set at 40 seconds to prevent the tail from cold sore. No cold sore were found in 40 sec. Five minutes after the drug was given to the rat, the flick test was performed every 10 minutes or more. […]
(c) Dinalbuphine sebacoyl ester, dose was 7.8125 μ/kg, 31.25 μM/kg, 125 μM/kg.
(d) 50 mg/ml dinalbuphine sebacoyl ester parenteral dosage forms, dinalbuphine sebacoyl ester was prepared in sesame oil.

[1] = cited from earlier work
human = details: Shafer et al. 1991; cited from earlier work
[2] = between 17 and 28 hours; p<0.05
guinea pigs = test: Analgesic effect, intramuscular, guinea pigs; format: in vivo, guinea pig; details: hydrochloride
Description: Six male Sprague Dawley rats (175 to 225 g), and six male guinea pigs (200 to 250 g) were used.
Dose for guinea pig was 500 μ/kg, 250 μM/kg.

[3] = comparison value for Nalbuphine hydrochloride, source not stated; cited from earlier work

CC(C)(C)C(=O)Oc1ccc2c3c1O[C@H]1[C@@H](O)CC[C@@]4(O)[C@@H](C2)N(CC2CCC2)CC[C@]314 [Nalbuphine pivalate]
analgesic duration of Nalbuphine free base compared with the preparation of this ester (Sprague Dawley rats): significantly shorter

CCC(=O)Oc1ccc2c3c1O[C@H]1[C@@H](O)CC[C@@]4(O)[C@@H](C2)N(CC2CCC2)CC[C@]314 [Nalbuphine propionate]
analgesic duration of Nalbuphine free base compared with the preparation of this ester (Sprague Dawley rats): significantly shorter

CCCCCCCCCC(=O)Oc1ccc2c3c1O[C@H]1[C@@H](O)CC[C@@]4(O)[C@@H](C2)N(CC2CCC2)CC[C@]314 [Nalbuphine decanoate]
analgesic duration of Nalbuphine free base compared with the preparation of this ester (Sprague Dawley rats): significantly shorter

CCCCCCCCCC(=O)OC1(c2ccc(Cl)cc2)CCN(CCCC(=O)c2ccc(F)cc2)CC1 [Haloperidol decanoate]
dosing frequency to which effect was extended ([1]; intramuscular, Gelders 1986): 1 to 2 times a month

C[C@]12CC[C@H]3[C@@H](CCC4=CC(=O)CC[C@@]43C)[C@@H]1CC[C@@H]2O [Testosterone]
drug release ([1]; suspension): released quickly

C#C[C@]1(OC(=O)CCCCCC)CC[C@H]2[C@@H]3CCC4=CC(=O)CC[C@@H]4[C@H]3CC[C@@]21C [Northisterone enanthate]
dosing interval can be set longer to ([1]; Joshi et al. 1989): two months

CN1CC[C@]23c4c5ccc(O)c4O[C@H]2[C@@H](O)C=C[C@H]3[C@H]1C5 [Morphine]
dose needed to elicit the same analgesic effect (human): 10 mg

O=C(Oc1ccc2c3c1O[C@H]1[C@@H](O)CC[C@@]4(O)[C@@H](C2)N(CC2CCC2)CC[C@]314)c1ccccc1 [Nalbuphine benzoate]
analgesic duration of Nalbuphine free base compared with the preparation of this ester (Sprague Dawley rats): significantly shorter

Oc1ccc2c(c1)[C@@]13CCCC[C@@]1(O)[C@@H](C2)N(CC1CCC1)CC3 [Butorphanol]
dose needed to elicit the same analgesic effect (human): 2 mg

Oc1ccc2c3c1O[C@H]1[C@@H](O)CC[C@@]4(O)[C@@H](C2)N(CC2CCC2)CC[C@]314 [Nalbuphine free base, reference compound]
analgesic duration compared with preparations of Nalbuphine monomer ester (Sprague Dawley rats): significantly shorter
amount of released Nalbuphine free base [2]: less in the preparation with sesame oil than with peanut oil ester and the control

CCCCCCC(=O)Oc1ccc2c3c1O[C@H]1[C@@H](O)CC[C@@]4(O)[C@@H](C2)N(CC2CCC2)CC[C@]314 [Nalbuphine enanthate]
analgesic duration of Nalbuphine free base compared with the preparation of this ester (Sprague Dawley rats): significantly shorter

Oc1ccc2c3c1O[C@H]1[C@@H](O)CC[C@@]4(O)[C@@H](C2)N(CC2CCC2)CC[C@]314 [Nalbuphine hydrochloride]
dose at which significant analgesic effect was found (guinea pigs): 500 µM/kg and 250 µM/kg
half life for excretion [3]: about 1 hour
